In patent US10517913B2, “Composition for prevention, alleviation, or treatment of peripheral neuropathy comprising Lithospermi Radix extract as an effective component” (priority 2015, dated 2019):

Experiments:
[1] = system: intraepidermal nerve fiber (IENF) of peripheral neuropathic animals induced by oxaliplatin; assay: Quantitative histological analysis of intraepidermal nerve fiber (PGP9.5) in hind footpad skin; type: in vivo, C57BL/6 mice; conditions: after oxaliplatin 10 mg/kg; WLR 250 mg/kg oral 6 times per week or amifostine 100 mg/kg i.p. 2 times per week, 2 weeks
Description: In the present invention, an animal model having peripheral neuropathy was induced by oxaliplatin. Eight-week old male C57BL/6 mice were purchased from the OrientBio. Following 1 week acclimation period in a cage in an animal test room, the base line (BL) of responses of experimental animals to 3 times of mechanical stimulations applied to the right hind footpad of the animal using von Frey filament hair. Then, the animals were divided into different groups (N=8 animals/group). Peripheral neuropathy was induced by injection of 5 mg/kg oxaliplatin through tail veins of animals (once a week, 2 times for 2 weeks, i.e., 10 mg/kg oxaliplatin in total). Oxaliplatin was purchased from the LC Laboratories. […]
The slice of hind footpad skin with 4 μm thickness was subjected to immunofluorescence staining using a PGP9.5 antibody, a marker for IENF in skin. […] The expression level of intraepidermal nerve fibers was expressed by the number of fluorescence-stained nerves in epidermis which were stemmed from dermis per field length of the basal membrane of epidermis (IENF/mm) within a viewing area under a fluorescence microscope. The fluorescent microscopic images were analyzed compared with control treatment using a software (Cellsense, Olympus). […]

[2] = system: astrocytes and microglial cells in spinal cord of peripheral neuropathic animals induced by oxaliplatin; assay: Immunohistological analysis of glial cells (GFAP, Iba-1) in lumbar spinal cord; type: in vivo, C57BL/6 mice; conditions: after oxaliplatin 10 mg/kg; WLR 250 mg/kg oral 6 times per week or amifostine 100 mg/kg i.p. 2 times per week, 2 weeks
Description: (§1) In the present invention, an animal model having peripheral neuropathy was induced by oxaliplatin. Eight-week old male C57BL/6 mice were purchased from the OrientBio. Following 1 week acclimation period in a cage in an animal test room, the base line (BL) of responses of experimental animals to 3 times of mechanical stimulations applied to the right hind footpad of the animal using von Frey filament hair. Then, the animals were divided into different groups (N=8 animals/group). Peripheral neuropathy was induced by injection of 5 mg/kg oxaliplatin through tail veins of animals (once a week, 2 times for 2 weeks, i.e., 10 mg/kg oxaliplatin in total). Oxaliplatin was purchased from the LC Laboratories.
(§2) The specimens were prepared to histologically determine the protective effect of the Lithospermi Radix extract (WLR) against neuronal damage in peripheral neuropathic animals induced by oxaliplatin. Specifically, the animal was anaesthetized by intraperitoneal injection of sodium pentobarbital (50 mg/kg), and then, blood was removed by perfusion of 0.9% physiological saline through the aorta via left ventricle. Following fixation by perfusion of 4% paraformaldehyde solution buffered with 0.1 M phosphate, the 4th to 6th lumbar spinal cords, dorsal root ganglia, and the hind footpad skins were removed. The tissues were further fixed in the same fixation solution as above. The paraffin-embedded tissues were sectioned at a 4 μm thickness. The slices were mounted on a glass slide, dried, and then, kept at room temperature until use.
The slice of spinal cord with 4 μm thickness was subjected to immunofluorescence staining using antibodies against GFAP and Iba-1 which are astrocyte and microglial cell markers, respectively. After removal of paraffin and hydration, the slice was immersed in citrate buffer solution (Vector Lab., USA) for 10 minutes in a microwave to recover antigenicity and increase reactivity. […]
The activity of the glial cells was expressed by the ratio (%) of the area of stained cells relative to the viewing area under a fluorescence microscope. The fluorescence microscopic images were analyzed compared to the control treatment using a software (Cellsense, Olympus).
Specifically, peripheral neuropathy was induced in male C57BL/6 mice by oxaliplatin (10 mg/kg) according to [Materials and Methods 4]. […] Using the obtained specimen, activation of astrocytes and microglial cells in dorsal horn areas of the lumbar spinal cord of the animals was measured by detecting GFAP and Iba-1 marker proteins, respectively, according to [Materials and Methods 6-2]. Distribution of intraepidermal nerve fiber (IENF) in the hind footpad skin was measured by detecting PGP9.5 marker protein according to [Materials and Methods 6-3].

[3] = system: dorsal root ganglion (DRG) neurons of peripheral neuropathic animals induced by oxaliplatin; assay: Morphological cell analysis of dorsal root ganglion neurons; type: in vivo, C57BL/6 mice; conditions: after oxaliplatin 10 mg/kg; WLR 250 mg/kg oral 6 times per week or amifostine 100 mg/kg i.p. 2 times per week, 2 weeks
Description: as §1, §2
Dorsal root ganglions were cut out, sectioned into slices with 4 μm thickness and then, subjected to Azan-Mallory trichrome staining. The nucleoli in the stained slice were examined under an optical microscope. Among the neurons having discernible nucleoli, the number of neurons having eccentric nucleoli or multinucleolated nucleus was expressed as a percentage of the total neurons in a viewing area.
Specifically, peripheral neuropathy was induced in male C57BL/6 mice by oxaliplatin (10 mg/kg) according to [Materials and Methods 4]. After that, the mice were orally administered 6 times per week with 250 mg/kg of a Lithospermi Radix extract (WLR) prepared in [Materials and Methods 1] or 0.5% carboxymethyl cellulose (CMC) as a negative control. In addition, 100 mg/kg amifostine was intraperitoneally administered 2 times per week as a positive control. After drug administration for 2 weeks, dorsal root ganglion (DRG) was cut out according to [Materials and Methods 6-1]. Using the obtained specimen, morphological change of nucleus and nucleoli in the dorsal root ganglion (DRG) neurons was observed according to [Materials and Methods 6-4].

P-gp = assay: Induction of P-gp gene expression in HepaRG (real-time PCR); type: in vitro ADME, human; conditions: 10 μM rifampicin (positive control), 24 hours
Experimental: (§3) HepaRG was purchased from the Thermo Fisher Scientific. The cells were used immediately after purchase without any subculture. A William's medium E basal medium supplemented with Thaw, Plate & General Purpose Supplements was used for general cell culture. A William's medium E basal medium supplemented containing Induction Medium Supplements was used for induction experiment. The cells were cultured in a 24-well culture plate coated with collagen type I in an incubator at 37° C., 5% CO2. All culture media and additives used for HepaRG cell culture were purchased from the Thermo Fisher Scientific.
(§4) According to [Materials and Methods 3-4], human hepatoma cell line (HepaRG) were plated at 5×10^5 cells/ml in a 24-well plate coated with collagen type I and cultured for 72 hours at 37° C., 5% CO2. Then, the cells were treated for 24 hours with a positive control drug or with a Lithospermi Radix extract (WLR) at concentrations of 10, 20, 100, and 500 μg/ml. For a positive control drug, 50 μM omeprazole was used for CYP1A2 and CYP2B6, and 10 μM rifampicin was used for CYP3A4 and P-gp. Distilled water was used as a negative control. After 24 hours, total RNA was extracted using an Easy-Spin™ Total RNA extraction kit (iNtRON Biotechnology). cDNA was synthesized from total RNA (500 ng) using oligo dT and iScript cDNA synthesis kit (Bio-Rad). […]

CYP2B6 = assay: Induction of CYP2B6 gene expression in HepaRG (real-time PCR); type: in vitro ADME, human; conditions: 50 μM omeprazole (positive control), 24 hours
Experimental: as §3, §4

CYP1A2 = assay: Induction of CYP1A2 gene expression in HepaRG (real-time PCR); type: in vitro ADME, human; conditions: 50 μM omeprazole (positive control), 24 hours
Experimental: as §3, §4

## NCCCNCCSP(=O)(O)O [amifostine]
[1]
  oxaliplatin-reduced densities of intraepidermal nerve fibers in hind footpad skin: recovered
[2]
  oxaliplatin-increased number of activated astrocytes (GFAP positive cells): reduced to the same extent
  oxaliplatin-increased number of activated microglial cells (Iba-1 positive cells): reduced to the same extent
[3]
  oxaliplatin-induced morphological change: DRG neurons having eccentric nucleoli: reduced to the same extent
  oxaliplatin-induced morphological change: number of neurons having multinucleolated nucleus: decreased with statistical significance

## CO[C@H]1/C=C/O[C@@]2(C)Oc3c(C)c(O)c4c(O)c(c(/C=N/N5CCN(C)CC5)c(O)c4c3C2=O)NC(=O)/C(C)=C\C=C\[C@H](C)[C@H](O)[C@@H](C)[C@@H](O)[C@@H](C)[C@H](OC(C)=O)[C@@H]1C [rifampicin]
P-gp
  expression of P-gp: effectively enhanced

## COc1ccc2[nH]c([S+]([O-])Cc3ncc(C)c(OC)c3C)nc2c1 (centres unmarked) [omeprazole]
CYP2B6
  expression of CYP2B6: effectively enhanced
CYP1A2
  expression of CYP1A2: effectively enhanced
